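Step 1: Grow cells in 96-well plates. Step 2: Expose to compound for 48 hours at 5 concentrations. Step 3: Interpolate endpoints linearly; if unreached, use highest concentration. TGI is the concentration that stops growth completely.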
Key:
Assay in all cases: inhibition of tumour cell growth, NCI panel, 48 h
786-0 renal = tested on: 786-0 renal
A498 renal = tested on: A498 renal
A549 NSCLC = tested on: A549 NSCLC
ACHN renal = tested on: ACHN renal
CAKI-1 renal = tested on: CAKI-1 renal
CCRF-CEM leukemia = tested on: CCRF-CEM leukemia
COLO 205 colon = tested on: COLO 205 colon
DMS 114 small cell lung = tested on: DMS 114 small cell lung
DMS 273 small cell lung = tested on: DMS 273 small cell lung
EKVX NSCLC = tested on: EKVX NSCLC
HCC-2998 colon = tested on: HCC-2998 colon
HCT-116 colon = tested on: HCT-116 colon
HL-60(TB) leukemia = tested on: HL-60(TB) leukemia
HOP-62 NSCLC = tested on: HOP-62 NSCLC
IGROV1 ovarian = tested on: IGROV1 ovarian
K-562 leukemia = tested on: K-562 leukemia
KM12 colon = tested on: KM12 colon
KM20L2 colon = tested on: KM20L2 colon
LOX IMVI melanoma = tested on: LOX IMVI melanoma
LXFL 529 NSCLC = tested on: LXFL 529 NSCLC
M14 melanoma = tested on: M14 melanoma
M19-MEL melanoma = tested on: M19-MEL melanoma
MALME-3M melanoma = tested on: MALME-3M melanoma
MOLT-4 leukemia = tested on: MOLT-4 leukemia
NCI-H226 lung = tested on: NCI-H226 lung
NCI-H23 lung = tested on: NCI-H23 lung
NCI-H460 lung = tested on: NCI-H460 lung
NCI-H522 lung = tested on: NCI-H522 lung
OVCAR-3 ovarian = tested on: OVCAR-3 ovarian
OVCAR-4 ovarian = tested on: OVCAR-4 ovarian
OVCAR-5 ovarian = tested on: OVCAR-5 ovarian
OVCAR-8 ovarian = tested on: OVCAR-8 ovarian
RPMI-8226 leukemia = tested on: RPMI-8226 leukemia
SF-268 CNS = tested on: SF-268 CNS
SF-295 CNS = tested on: SF-295 CNS
SF-539 CNS = tested on: SF-539 CNS
SK-MEL-5 melanoma = tested on: SK-MEL-5 melanoma
SN12C renal = tested on: SN12C renal
SNB-19 CNS = tested on: SNB-19 CNS
SR leukemia = tested on: SR leukemia
SW-620 colon = tested on: SW-620 colon
UACC-257 melanoma = tested on: UACC-257 melanoma
UACC-62 melanoma = tested on: UACC-62 melanoma
UO-31 renal = tested on: UO-31 renal
DLD-1 colon = tested on: DLD-1 colon
HOP-92 NSCLC = tested on: HOP-92 NSCLC
HT29 colon = tested on: HT29 colon
RXF-631 renal = tested on: RXF-631 renal
SK-MEL-2 melanoma = tested on: SK-MEL-2 melanoma
SK-MEL-28 melanoma = tested on: SK-MEL-28 melanoma
SK-OV-3 ovarian = tested on: SK-OV-3 ovarian
SNB-75 CNS = tested on: SNB-75 CNS
SNB-78 CNS = tested on: SNB-78 CNS
TK-10 renal = tested on: TK-10 renal

Compound: COC1C=CC23c4cc5c(cc4C(O)OC2CN(C)C3C1)OCO5 (stereo unspecified)
- TGI (786-0 renal): 11 µM
- TGI (A498 renal): 9.89 µM
- TGI (A549 NSCLC): 9.49 µM
- TGI (ACHN renal): 10.1 µM
- TGI (CAKI-1 renal): 24.8 µM
- TGI (CCRF-CEM leukemia): 7.21 µM
- TGI (COLO 205 colon): 2.99 µM
- TGI (DMS 114 small cell lung): 6.05 µM
- TGI (DMS 273 small cell lung): 6.87 µM
- TGI (EKVX NSCLC): 32.9 µM
- TGI (HCC-2998 colon): 5.71 µM
- TGI (HCT-116 colon): 10.1 µM
- TGI (HL-60(TB) leukemia): 3.17 µM
- TGI (HOP-62 NSCLC): 17.9 µM
- TGI (IGROV1 ovarian): 22.3 µM
- TGI (K-562 leukemia): 14.3 µM
- TGI (KM12 colon): 13.4 µM
- TGI (KM20L2 colon): 9.1 µM
- TGI (LOX IMVI melanoma): 6.85 µM
- TGI (LXFL 529 NSCLC): 9.55 µM
- TGI (M14 melanoma): 3.15 µM
- TGI (M19-MEL melanoma): 8.82 µM
- TGI (MALME-3M melanoma): 6.49 µM
- TGI (MOLT-4 leukemia): 5.32 µM
- TGI (NCI-H226 lung): 5.36 µM
- TGI (NCI-H23 lung): 27.4 µM
- TGI (NCI-H460 lung): 56.7 µM
- TGI (NCI-H522 lung): 7 µM
- TGI (OVCAR-3 ovarian): 5.8 µM
- TGI (OVCAR-4 ovarian): 9.77 µM
- TGI (OVCAR-5 ovarian): 39.9 µM
- TGI (OVCAR-8 ovarian): 9.2 µM
- TGI (RPMI-8226 leukemia): 8.34 µM
- TGI (SF-268 CNS): 26.9 µM
- TGI (SF-295 CNS): 9.59 µM
- TGI (SF-539 CNS): 3.65 µM
- TGI (SK-MEL-5 melanoma): 1.65 µM
- TGI (SN12C renal): 7.88 µM
- TGI (SNB-19 CNS): 7.36 µM
- TGI (SR leukemia): 4.59 µM
- TGI (SW-620 colon): 11.6 µM
- TGI (UACC-257 melanoma): 7.3 µM
- TGI (UACC-62 melanoma): 58.8 µM
- TGI (UO-31 renal): 9.3 µM

Compound: Cc1cccc2c3ccc4c(c3n(C)c12)C(=O)C=CC4=O
- TGI (786-0 renal): > 100 µM
- TGI (A549 NSCLC): > 100 µM
- TGI (CAKI-1 renal): > 100 µM
- TGI (CCRF-CEM leukemia): 61.2 µM
- TGI (COLO 205 colon): > 100 µM
- TGI (DLD-1 colon): > 100 µM
- TGI (DMS 114 small cell lung): > 100 µM
- TGI (DMS 273 small cell lung): > 100 µM
- TGI (EKVX NSCLC): > 100 µM
- TGI (HCC-2998 colon): > 100 µM
- TGI (HCT-116 colon): > 100 µM
- TGI (HL-60(TB) leukemia): 41.9 µM
- TGI (HOP-62 NSCLC): > 100 µM
- TGI (HOP-92 NSCLC): > 100 µM
- TGI (HT29 colon): > 100 µM
- TGI (IGROV1 ovarian): > 100 µM
- TGI (K-562 leukemia): > 100 µM
- TGI (KM12 colon): > 100 µM
- TGI (LXFL 529 NSCLC): > 100 µM
- TGI (M14 melanoma): > 100 µM
- TGI (M19-MEL melanoma): > 100 µM
- TGI (MALME-3M melanoma): > 100 µM
- TGI (MOLT-4 leukemia): > 100 µM
- TGI (NCI-H226 lung): > 100 µM
- TGI (NCI-H23 lung): 57.8 µM
- TGI (NCI-H522 lung): > 100 µM
- TGI (OVCAR-3 ovarian): > 100 µM
- TGI (OVCAR-4 ovarian): > 100 µM
- TGI (OVCAR-8 ovarian): > 100 µM
- TGI (RPMI-8226 leukemia): > 100 µM
- TGI (RXF-631 renal): > 100 µM
- TGI (SF-268 CNS): > 100 µM
- TGI (SF-295 CNS): > 100 µM
- TGI (SF-539 CNS): > 100 µM
- TGI (SK-MEL-2 melanoma): > 100 µM
- TGI (SK-MEL-28 melanoma): > 100 µM
- TGI (SK-OV-3 ovarian): > 100 µM
- TGI (SN12C renal): > 100 µM
- TGI (SNB-19 CNS): > 100 µM
- TGI (SNB-75 CNS): > 100 µM
- TGI (SNB-78 CNS): > 100 µM
- TGI (SR leukemia): > 100 µM
- TGI (SW-620 colon): > 100 µM
- TGI (TK-10 renal): > 100 µM
- TGI (UACC-257 melanoma): > 100 µM
- TGI (UACC-62 melanoma): > 100 µM
- TGI (UO-31 renal): > 100 µM
